System: ACh release, MatTek FT full-thickness model of human skin (human epidermal keratinocytes and human dermal fibroblasts)
Experiment: MatTek FT tissue model, ACh concentration in the tissue culture media
Type: cell-based
Text: The MatTek FT™ tissue model was used to determine whether treatment with the test formulation would impact ACh release in vitro. The MatTek FT™ tissue model is a three-dimensional, full-thickness model of human skin formed from cultured human epidermal keratinocytes and human dermal fibroblasts. […] The MatTek FT™ tissue model allows for the performance of preclinical studies to evaluate mechanisms of action for skincare products.
A first untreated tissue model served as a control sample and was maintained in a tissue culture media. A second tissue model was maintained in a tissue culture media and treated daily with the test formulation. A third tissue model was maintained in a tissue culture media and exposed to Neostigmine, an acetylcholinesterase inhibitor that prevents the breakdown of ACh in the tissue culture media. A fourth tissue model was maintained in a tissue culture media, treated daily with the test formulation, and exposed to Neostigmine. The amount of ACh created by each of the tissue models was determined by measuring the ACh concentration in the tissue culture media. The results can be seen in FIG. 1.

Question: Which results are given for `CN(C)C(=O)Oc1cccc([N+](C)(C)C)c1` [Neostigmine]?
Answer: accumulation of ACh (ACh concentration in tissue culture media) (FIG. 1, tissue model exposed to Neostigmine alone (third tissue model), time not stated): about 200 picograms per ml of solution; ACh concentration at 72 hours, in words, effect of presence of neostigmine (FIG. 2, 72 hours, neostigmine in the untreated tissue model): relatively higher concentrations of ACh
